Read-outs that look alike come from different tables or passages of the source.
What was measured:
[1] = microPET/CT imaging, ROI analysis, BxPC-3 tumor models; type: in vivo, mice; details: nude (thymus-free), mouse, intravenous, 3 MBq, 1 h after tracer injection
Method: (§1) A human pancreatic cancer cell line BxPC-3 and a murine pancreatic cancer cell Panc-02 were obtained from the American Type Culture Collection. The pancreatic cancer cell line T3M-4 was purchased by MeisenCTCC (Zhejiang, China). BxPC-3 and T3M-4 cell lines were grown in RPMI 1640 medium (Shanghai BasalMedia Technologies Co., LTD.) containing 10% FBS (GE Healthcare, Chicago, IL, USA) and 1% penicillin–streptomycin solution (Invitrogen). To culture the Panc-02 cell line, a medium called Dulbecco’s modified Eagle medium from Shanghai BasalMedia Technologies Co., LTD. was used, which consisted of 10% FBS. The cell line HT-1080 was grown in MEM medium (Shanghai BasalMedia Technologies Co., LTD.) supplemented with 10% FBS, 1% penicillin-streptomycin solution, and 1% nonessential amino acids (NEAA-11140050; Gibco). A human fibrosarcoma cell line was stably transfected with FAP (HT1080-FAP) and cultured, as we previously described. All cell lines were cultured in a humid incubator with 5% CO2 at a temperature of 37 °C. Approval was granted by the Institutional Animal Care and Use Committee (Renji Hospital, School of Medicine, Shanghai Jiao Tong University) for all experimental protocols and procedures related to animal care. Panc-02 cells were implanted by subcutaneous injection of 5 × 10^6 tumor cells suspended in 100 μl PBS and matrigel matrix (Corning) with equal volume into the upper limb flank of C57BL/6 mice (Shanghai Sheng Chang Biotechnology Co., Ltd.). Four- to 6-week-old thymus-free nude mice (GemPharmatech) were subcutaneously inoculated with BxPC-3, T3M-4, HT-1080, and HT1080-FAP cells (5 × 10^6 in 100 μl of PBS mixing with 100 μl matrigel matrix) in the right shoulder. […]
(§2) MicroPET imaging was performed on isoflurane-anesthetized mice injected intravenously via the lateral tail vein with around 3 MBq (2.5 nmol) of the radioligand at certain times. […] The information was analyzed using OsiriX Lite software (Pixmeo SARL) and Inveon Research Workplace (Siemens Preclinical Solutions). […]

[2] = microPET/CT imaging, ROI analysis, HT1080-FAP tumor models; type: in vivo, mice; details: nude (thymus-free), mouse, intravenous
Method: (§3) A human pancreatic cancer cell line BxPC-3 and a murine pancreatic cancer cell Panc-02 were obtained from the American Type Culture Collection. The pancreatic cancer cell line T3M-4 was purchased by MeisenCTCC (Zhejiang, China). BxPC-3 and T3M-4 cell lines were grown in RPMI 1640 medium (Shanghai BasalMedia Technologies Co., LTD.) containing 10% FBS (GE Healthcare, Chicago, IL, USA) and 1% penicillin–streptomycin solution (Invitrogen). To culture the Panc-02 cell line, a medium called Dulbecco’s modified Eagle medium from Shanghai BasalMedia Technologies Co., LTD. was used, which consisted of 10% FBS. The cell line HT-1080 was grown in MEM medium (Shanghai BasalMedia Technologies Co., LTD.) supplemented with 10% FBS, 1% penicillin-streptomycin solution, and 1% nonessential amino acids (NEAA-11140050; Gibco). A human fibrosarcoma cell line was stably transfected with FAP (HT1080-FAP) and cultured, as we previously described. All cell lines were cultured in a humid incubator with 5% CO2 at a temperature of 37 °C. Approval was granted by the Institutional Animal Care and Use Committee (Renji Hospital, School of Medicine, Shanghai Jiao Tong University) for all experimental protocols and procedures related to animal care. Panc-02 cells were implanted by subcutaneous injection of 5 × 10^6 tumor cells suspended in 100 μl PBS and matrigel matrix (Corning) with equal volume into the upper limb flank of C57BL/6 mice (Shanghai Sheng Chang Biotechnology Co., Ltd.). Four- to 6-week-old thymus-free nude mice (GemPharmatech) were subcutaneously inoculated with BxPC-3, T3M-4, HT-1080, and HT1080-FAP cells (5 × 10^6 in 100 μl of PBS mixing with 100 μl matrigel matrix) in the right shoulder. Follow-up microPET/CT imaging and ex vivo biodistribution experiments were performed when the tumor diameter reached 8 to 9 mm.
MicroPET imaging was performed on isoflurane-anesthetized mice injected intravenously via the lateral tail vein with around 3 MBq (2.5 nmol) of the radioligand at certain times. Regarding the FD1 blocking group, an excessive amount of unlabeled FD1 (200-fold) was simultaneously injected with [^68Ga]Ga-DOTA-FD1 into the tail vein of another batch of mice. Images were acquired using an IRIS PET/CT system (Inviscan Imaging Systems). PET data were reconstructed using a nonscatter-corrected 3D-ordered subset expectation […]/maximum a posteriori (OSEM3D/MAP) algorithm. The information was analyzed using OsiriX Lite software (Pixmeo SARL) and Inveon Research Workplace (Siemens Preclinical Solutions). The percentage of injected dose per gram of tissue (%ID/g, mean ± SD) was utilized to present the distribution of tracers in the ROI, encompassing tumor, heart, lung, liver, kidney, and muscle.

[3] = microPET/CT imaging, ROI analysis, Panc-02 tumor models; type: in vivo, mice; details: C57BL/6, mouse, intravenous, 3 MBq, 1 h after tracer injection
Method: as §1, §2

[4] = [68Ga]Ga-DOTA-FD1 PET/CT imaging in tumor patients; type: in vivo, human; details: human
Method: (§4) This clinical trial received ethical approval from the institutional review board of The First Affiliated Hospital of Xiamen University and has been registered at ClinicalTrials.gov (NCT04849247). All healthy volunteers (n = 3) and patients (n = 6) provided written informed consent before participation. There was no need for any particular preparation for [^68Ga]Ga-DOTA-FD1 PET/CT. Each participant was administered a dose of [^68Ga]Ga-DOTA-FD1 at a rate of 3.0 to 3.7 MBq/kg. Adverse events were under observation for 4 h after the injection of [^68Ga]Ga-DOTA-FD1. A hybrid PET/CT system (Discovery MI, GE Healthcare, Milwaukee, WI, USA) was used to perform static PET/CT imaging after 60 min of injection. PET/CT scan was conducted from the head region to the upper thighs (for [^68Ga]Ga-DOTA-FD1 PET/CT). For the CT scan, the parameters utilized were 110 kV, 80 mA, and a slice thickness measuring 3.75 mm. The obtained data were transferred to the Advantage Workstation (version AW 4.7, GE Healthcare). The Bayesian penalized likelihood reconstruction algorithm (Q.clear, GE Healthcare) was utilized for image reconstruction, employing a penalization factor (beta) of 500. For tumor staging/restaging, a total of 6 patients received paired PET/CT imaging using [^68Ga]Ga-DOTA-FD1. In terms of quantitative assessment, the maximum standardized uptake value (SUVmax) and the mean SUV (SUVmean) were employed to quantify the uptake of the radiopharmaceutical in both normal organs and tumor tissues.

[5] = test system: tumor lesions of patients; experiment: [68Ga]Ga-DOTA-FD1 PET/CT imaging in tumor patients; type: in vivo, human; details: for Lymph node metastases Median SUVmax (range) / Primary tumor Median SUVmax: initial staging
Method: as §4

[6] = Safety and biodistribution of [68Ga]Ga-DOTA-FD1 in healthy volunteers and patients; type: in vivo, human
Method: as §4, with “For tumor staging/restaging, a total of 6 patients received paired PET/CT imaging using [^68Ga]Ga-DOTA-FD1.” left out

[7] = Ex vivo biodistribution after imaging, HT1080-FAP tumor models; type: in vivo, mice; details: nude (thymus-free), mouse, intravenous, total radioactivity
Method: as §3
After imaging collection and image reconstruction, samples from euthanized experimental mice, including blood and multiple significant organs, were harvested and weighed. The radioactivity in each collected tissue was counted using an automated gamma counter (Wizard 2480, PerkinElmer) and the accumulation of radioactivity in different tissues and organs was quantified and expressed as %ID/g (mean ± SD). [^177Lu]Lu-DOTA-FD1 (~1.11 MBq, n = 3), [^177Lu]Lu-DOTA-FD2 (~1.11 MBq, n = 3), and [^177Lu]Lu-DOTA-FD3 (~1.11 MBq, n = 3) were injected into the tail vein of free nude mice at 6 h, 24 h, and 24 h for ex vivo biodistribution to verify the circulation time of the 3 probes in vivo. Biodistribution data from tumor-bearing mice injected with [^177Lu]Lu-DOTA-FD3 at 45 h (~1.11 MBq, n = 4) and 90 h (~1.11 MBq, n = 3) validated the prolonged enrichment of the probe at the tumor site. At the end of each probe imaging and radioactivity counting study, tumor tissues were fixed in paraformaldehyde tissue fixative. Briefly, sections of 10 μm were cut and stained for H&E following the standard protocols. IHC staining with a FAP antibody (ab227703, Abcam) was performed only on tumor tissues following accepted techniques.

[8] = microPET/CT imaging, ROI analysis, HT-1080 tumor models; type: in vivo, mice; details: nude (thymus-free), mouse, intravenous, 3 MBq, 30 min p.i.
Method: as §1, §2

[9] = Ex vivo biodistribution after imaging, HT-1080 tumor models; type: in vivo, mice; details: nude (thymus-free), mouse, intravenous, 3 MBq, total radioactivity, after imaging at 30 min p.i., read-out: tumor uptake (biodistribution study)
Method: A human pancreatic cancer cell line BxPC-3 and a murine pancreatic cancer cell Panc-02 were obtained from the American Type Culture Collection. The pancreatic cancer cell line T3M-4 was purchased by MeisenCTCC (Zhejiang, China). BxPC-3 and T3M-4 cell lines were grown in RPMI 1640 medium (Shanghai BasalMedia Technologies Co., LTD.) containing 10% FBS (GE Healthcare, Chicago, IL, USA) and 1% penicillin–streptomycin solution (Invitrogen). To culture the Panc-02 cell line, a medium called Dulbecco’s modified Eagle medium from Shanghai BasalMedia Technologies Co., LTD. was used, which consisted of 10% FBS. The cell line HT-1080 was grown in MEM medium (Shanghai BasalMedia Technologies Co., LTD.) supplemented with 10% FBS, 1% penicillin-streptomycin solution, and 1% nonessential amino acids (NEAA-11140050; Gibco). […]
After imaging collection and image reconstruction, samples from euthanized experimental mice, including blood and multiple significant organs, were harvested and weighed. The radioactivity in each collected tissue was counted using an automated gamma counter (Wizard 2480, PerkinElmer) and the accumulation of radioactivity in different tissues and organs was quantified and expressed as %ID/g (mean ± SD). […] At the end of each probe imaging and radioactivity counting study, tumor tissues were fixed in paraformaldehyde tissue fixative. […]

tissue uptake at 1 h [1]: 0.96 ± 0.07 %ID/g
tissue uptake ([2]; 750 ug, HT1080-FAP tumor, co-injected excess unlabeled FD1 (750 μg), read-out: tumor uptake (ROI analysis) upon FD1 blocking): 2.63 ± 1.28 %ID/g
tissue uptake ([2]; 3 MBq, HT1080-FAP tumor, without blocking, read-out: tumor uptake (ROI analysis)): 8.85 ± 3.3 %ID/g
tissue uptake ([2]; kidney, 750 ug, HT1080-FAP models, co-injected excess unlabeled FD1 (750 μg), read-out: kidney accumulation (ROI analysis) upon FD1 blocking): 10.3 ± 1.67 %ID/g
tissue uptake ([2]; kidney, 3 MBq, HT1080-FAP models, without blocking, read-out: kidney accumulation (ROI analysis)): 40.6 ± 4.76 %ID/g
tissue uptake at 1 h [3]: 0.92 ± 0.22 %ID/g
SUV at 1 h ([4]; primary tumour lesions, 4 primary lesions, initial staging patients, 60 min after injection, read-out: median SUVmax of primary lesions): 8.86 SUV
SUV at 1 h ([4]; 15 lymph node metastases in 3 patients, read-out: median SUVmax of lymph node metastases): 5.6 SUV
Bone and visceral metastases Median SUVmax (range) ([5]; Patient 1, thyroid cancer, recurrence detection): 2.87 (2.52–4.45)
Lymph node metastases Median SUVmax (range) ([5]; Patient 3, esophagus cancer): 4.29 (4.02–4.57)
Primary tumor Median SUVmax ([5]; Patient 3, esophagus cancer): 7.64
Lymph node metastases Median SUVmax (range) ([5]; Patient 4, NPC): 5.67 (4.14–7.76)
Primary tumor Median SUVmax ([5]; Patient 4, NPC): 5.27
Primary tumor Median SUVmax ([5]; Patient 5, esophagus cancer): 10.07
Primary tumor Median SUVmax ([5]; Patient 6, esophagus cancer): 13.42
tissue uptake ([7]; 750 ug, HT1080-FAP tumor, co-injected excess unlabeled FD1 (750 μg), read-out: tumor uptake (biodistribution) upon FD1 blocking): 2.15 ± 0.58 %ID/g
tissue uptake ([7]; 3 MBq, HT1080-FAP tumor, without blocking, read-out: tumor uptake (biodistribution study)): 19.2 ± 6.51 %ID/g
tissue uptake ([7]; kidney, 750 ug, HT1080-FAP models, co-injected excess unlabeled FD1 (750 μg), read-out: kidney accumulation (biodistribution analysis) upon FD1 blocking): 30.3 ± 4.45 %ID/g
tissue uptake ([7]; kidney, 3 MBq, HT1080-FAP models, without blocking, read-out: kidney accumulation (biodistribution analysis)): 110 ± 27.1 %ID/g
tissue uptake at 0.5 h [8]: 1.97 ± 0.45 %ID/g
tissue uptake at 0.5 h [9]: 1.02 ± 0.41 %ID/g
Compound: CCCCCC(=O)N[C@H]1CSCc2cc(CSCCNC(=O)[C@H](CCCCN)NC(=O)[C@@H](NC(=O)[C@H](CCSC)NC(=O)CN3CCN(CC(=O)O)CCN(CC(=O)O)CCN(CC(=O)O)CC3)C(C)C)cc(c2)CSC[C@@H](C(=O)O)NC(=O)[C@H](Cc2ccccc2)NC(=O)[C@H](CCC(N)=O)NC(=O)[C@H]([C@@H](C)O)NC(=O)[C@@H]2CCCN2C(=O)[C@@H]2CCCN2C1=O [[^68Ga]Ga-DOTA-FD1, metal not drawn]
uptake in normal tissues and organs ([6]; healthy volunteers (n = 3), PET 60 min after injection): negligible uptake in normal tissues and organs except the kidneys
adverse events ([6]; healthy volunteers and patients, during the injection and at 4 h follow-up, 3.0 to 3.7 MBq/kg): No adverse events were observed
